{"source": "patent US8541189B2", "about": "“Method for measuring the plasmine activity of microparticles present in a sample of blood or a blood component” (Institut National de la Sante et de la Recherche Medicale …, priority 2007, dated 2013)", "molecular_target": "plasminogen (Homo sapiens, UniProt P00747)", "sequence (P00747 20-810 limits assumed, species assumed)": "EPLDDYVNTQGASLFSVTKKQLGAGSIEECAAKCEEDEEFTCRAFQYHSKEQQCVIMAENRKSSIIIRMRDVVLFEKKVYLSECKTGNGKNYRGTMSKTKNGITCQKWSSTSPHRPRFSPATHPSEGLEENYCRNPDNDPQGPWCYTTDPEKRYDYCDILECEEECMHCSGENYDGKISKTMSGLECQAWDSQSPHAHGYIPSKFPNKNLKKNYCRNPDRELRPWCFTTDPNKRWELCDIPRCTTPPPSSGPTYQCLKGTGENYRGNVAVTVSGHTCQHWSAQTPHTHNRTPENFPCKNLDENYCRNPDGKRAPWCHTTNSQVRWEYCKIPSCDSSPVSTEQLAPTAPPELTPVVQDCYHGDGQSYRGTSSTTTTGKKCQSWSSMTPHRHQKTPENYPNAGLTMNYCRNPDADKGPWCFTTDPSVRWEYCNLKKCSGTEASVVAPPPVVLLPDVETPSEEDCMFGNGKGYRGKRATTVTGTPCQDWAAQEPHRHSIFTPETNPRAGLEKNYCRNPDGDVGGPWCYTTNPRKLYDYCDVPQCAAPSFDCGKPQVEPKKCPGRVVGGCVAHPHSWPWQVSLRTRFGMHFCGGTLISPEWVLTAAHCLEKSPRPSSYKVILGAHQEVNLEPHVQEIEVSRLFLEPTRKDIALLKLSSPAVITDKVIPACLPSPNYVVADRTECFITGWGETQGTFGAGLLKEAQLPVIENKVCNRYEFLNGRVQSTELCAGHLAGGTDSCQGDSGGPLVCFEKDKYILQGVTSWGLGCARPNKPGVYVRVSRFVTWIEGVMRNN", "test": "Plasmin-generation test, EMPs in suspension", "format": "biochemical", "conditions": "5 · 10^4 EMP/50 μL + EACA; 1 μM plasminogen; 0.75 mM CBS0065", "procedure": "In the round-bottomed wells of 96-well plates made of PVC, different EMP concentrations in suspension in PBS, to which 0.8% bovine serum albumin (PBSA) had been added, were incubated with 50 μl of a mixture of 1 μM plasminogen and (methyl-malonyl)-hydroxypropylarginine-p-nitroanilide (CBS0065, Stag°, Asniéres, France), chromogenic substrate selective for plasmin, at 0.75 mM.\nAn identical volume of supernatant from the last washing of the EMPs was used as a control.\nThe microplate was placed in the microplate readers and the kinetics of the appearance of the plasmin were monitored for 9 hours using a spectrophotometer suitable for reading multiwell plates (MX5000. Dynex) at 37° C. by measurement of the modifications of the absorbance at 405 nm produced by the release of the p-nitroaniline as a function of time.", "data": [{"smiles": "NCCCCCC(=O)O", "note": "[EACA, ε-aminocaproic acid]", "values": [{"measurement": "A405 nm/min", "value": 0.6, "unit": "A405 nm/min"}]}]}
